The source of these data is patent publication EP0210284B1, “1,3-Dithiol-2-ylidene derivatives” (priority 1985, dated 1987).

Read-outs that look alike come from different tables or passages of the source.

Series [1] has as its system Acute Liver Injury Induced by Carbon Tetrachloride. Put plainly: Protective effect on acute liver injury induced by carbon tetrachloride. Conditions: for Liver Damage Index: 50mg/kg orally in olive oil 6 hours before carbon tetrachloride (0.05ml/kg orally), visual score 0: normal, 2: slightly, 4: distinctly, 6: remarkably injured, n=5, CCl4 alone 6.0; for inhibition in vivo at 50 mg/kg: Mus musculus, po, 50mg/kg orally 6 hours before carbon tetrachloride (0.05ml/kg orally), CCl4 alone 0, Normal 100. Type of series: in vivo, mice (ddY mice). The procedure:
A test compound was dissolved or suspended in olive oil and administered orally at a dose of 50mg/kg to mice (ddY mice, ? , 23 ± 2g, n=5). After 6 hours, carbon tetrachloride (0.05ml/kg) was administered orally. 24 Hours after the administration of carbon tetrachloride, BSP (sodium sulfobromophthalene; 75mg/kg) was administered intravenously. Thirty minutes later, the cardiac blood was collected, and GPT (glutamic-pyruvic transaminase) activity and the retention rate of BSP in the plasma were measured. Further, the liver injury immediately after the collection of the blood was visually observed and evaluated by the following score for liver damage index. 0: normal 2: Slightly injured 4: distinctly injured 6: remarkably injured

A further series has as its system mice (ddY mice). Put plainly: Acute toxicity test. It counts as in vivo. The note with it: oral in olive oil, mortality one week after the administration, n=5. The procedure: A test compound was dissolved or suspended in olive oil and administered orally to mice (ddY mice, ? , 23±2g, n=5). The acute toxicity value (LD₅₀) was determined from the mortality one week after the administration.

Setting [2] is: 24.5 h, retention rate of BSP in plasma 30 minutes after BSP 75mg/kg i.v., read-out: % Prophylaxis BSP.
The mark [3] stands for this setting: plasma GPT about 24.5 hours after CCl4, read-out: % Prophylaxis p-GPT.

Turning to `CC(=O)C(C(=O)c1ccc(O)cc1)=C1SC=CS1` [Compound 45, 2-(1,3-dithiol-2-ylidene)-1-(4-hydroxyphenyl)-1,3-butanedione], the “Liver Damage Index” value in series [1] is 0.2. The inhibition in vivo at 50 mg/kg in series [1] (setting [2]) amounted to 111%; in series [1] (setting [3]) it was 100%. Moreover, in the series with mice (ddY mice), the “acute toxicity value (LD50)” value is listed as “at least 2 g”.
With `CC(=O)C(C(=O)c1ccco1)=C1SC=CS1` [Compound 23, 2-(1,3-dithiol-2-ylidene)-1-(2-furyl)-1,3-butanedione], the “Liver Damage Index” value in series [1] is recorded as 1.0. Also, the results for the inhibition in vivo at 50 mg/kg in series [1] (setting [2]) and in series [1] (setting [3]) were 110% and 94%, respectively.
As to `CCCC(=O)C(C(=O)c1ccccc1)=C1SC=CS1` [Compound 7, 2-(1,3-dithiol-2-ylidene)-1-phenyl-1,3-hexanedione], in series [1], the “Liver Damage Index” value came to 1.6. In addition, the inhibition in vivo at 50 mg/kg in series [1] (setting [2]) amounted to 108%; in series [1] (setting [3]), 100%. Also, the “acute toxicity value (LD50)” value in the series with mice (ddY mice) is recorded as “at least 2 g”.
With `O=C(C(C(=O)C(F)(F)F)=C1SC=CS1)c1ccccc1` [Compound 31, 2-(1,3-dithiol-2-ylidene)-1-phenyl-4,4,4-trifluoro-1,3-butanedione], the “Liver Damage Index” value in series [1] turned out to be 0.4. Moreover, the inhibition in vivo at 50 mg/kg in series [1] (setting [2]) stood at 106%; in series [1] (setting [3]) it was 100%.
Turning to `CC(=O)C(C(=O)c1ccc(Cl)cc1)=C1SC=CS1` [Compound 14, 2-(1,3-dithiol-2-ylidene)-1-(4-chlorophenyl)-1,3-butanedione], in series [1], the “Liver Damage Index” value is 0.4. Moreover, the inhibition in vivo at 50 mg/kg came out at 113% in series [1] (setting [2]) and 100% in series [1] (setting [3]).
The matching figures for `CC(=O)C(C(=O)c1ccncc1)=C1SC=CS1` [Compound 22, 2-(1,3-dithiol-2-ylidene)-1-(4-pyridyl)-1,3-butanedione]: 0.2, 120% and 100%.
Regarding `O=C(Cc1ccccc1)C(C(=O)c1ccccc1)=C1SC=CS1` [Compound 37, 2-(1,3-dithiol-2-ylidene)-1,4-diphenyl-1,3-butanedione], the “Liver Damage Index” value in series [1] came to 1.8. Also, the values for the inhibition in vivo at 50 mg/kg in series [1] (setting [2]) and in series [1] (setting [3]) were 99% and 100%, respectively.
For the compound `COc1ccc(C(=O)C(C(=O)c2ccc(OC)cc2)=C2SC=CS2)cc1` [Compound 36, 2-(1,3-dithiol-2-ylidene)-1,3-di(4-methoxyphenyl)-1,3-propanedione], in series [1], the “Liver Damage Index” value turned out to be 0. The results for the inhibition in vivo at 50 mg/kg in series [1] (setting [2]) and in series [1] (setting [3]) were 119% and 100%, respectively.
Turning to `O=C(C(C(=O)c1ccccc1)=C1SC=CS1)c1ccccc1` [Compound 34, 2-(1,3-dithiol-2-ylidene)-1,3-diphenyl-1,3-propanedione], the “Liver Damage Index” value in series [1] was determined as 0.8. Further, the inhibition in vivo at 50 mg/kg was found to be 112% in series [1] (setting [2]) and 100% in series [1] (setting [3]).
Regarding `CC(=O)C(C(=O)c1ccc2ccccc2n1)=C1SC=CS1` [Compound 30, 2-(1,3-dithiol-2-ylidene)-1-(2-quinolyl)-1,3-butanedione], the “Liver Damage Index” value in series [1] is reported as 2.0. The inhibition in vivo at 50 mg/kg amounted to 105% in series [1] (setting [2]) and 98% in series [1] (setting [3]).
The matching figures for `CC(=O)C(C(=O)c1cccnc1)=C1SC=CS1` [Compound 21, 2-(1,3-dithiol-2-ylidene)-1-(3-pyridyl)-1,3-butanedione]: 0.8, 100% and 98%.
In the case of `O=C(C(C(=O)c1ccc(Cl)cc1)=C1SC=CS1)c1ccc(Cl)cc1` [Compound 35, 2-(1,3-dithiol-2-ylidene)-1,3-di(4-chlorophenyl)-1,3-propanedione], the “Liver Damage Index” value in series [1] is 0. Also, the results for the inhibition in vivo at 50 mg/kg in series [1] (setting [2]) and in series [1] (setting [3]) were 114% and 100%, respectively.
Turning to `CC(=O)C(C(=O)c1cnccn1)=C1SC=CS1` [Compound 26, 2-(1,3-dithiol-2-ylidene)-1-pyrazinyl-1,3-butanedione], the “Liver Damage Index” value in series [1] was found to be 0.4. Moreover, the figures for the inhibition in vivo at 50 mg/kg in series [1] (setting [2]) and in series [1] (setting [3]) were 99% and 96%, respectively.
For `CC(=O)C(C(=O)c1cc2ccccc2[nH]1)=C1SC=CS1` [Compound 29, 2-(1,3-dithiol-2-ylidene)-1-(2-indolyl)-1,3-butanedione], the “Liver Damage Index” value in series [1] is reported as 0.8. The inhibition in vivo at 50 mg/kg in series [1] (setting [2]) came to 104%; in series [1] (setting [3]), 100%.
For `CC(=O)C(C(=O)c1cccc2ccccc12)=C1SC=CS1` [Compound 27, 2-(1,3-dithiol-2-ylidene)-1-(1-naphthyl)-1,3-butanedione], the “Liver Damage Index” value in series [1] was determined as 0. Also, the inhibition in vivo at 50 mg/kg in series [1] (setting [2]) and in series [1] (setting [3]) was 100% each time. In addition, the “acute toxicity value (LD50)” value in the series on mice (ddY mice) is reported as “at least 2 g”.
With `O=C(C=Cc1ccccc1)C(C(=O)c1ccccc1)=C1SC=CS1` [Compound 38, 4-(1,3-dithiol-2-ylidene)-1,5-diphenyl-1-pentene-3,5-dione], the “Liver Damage Index” value in series [1] was found to be 3.2. In addition, the results for the inhibition in vivo at 50 mg/kg in series [1] (setting [2]) and in series [1] (setting [3]) were 96% and 66%, respectively.
Consider `CC(=O)C(C(=O)c1ccc2ccccc2c1)=C1SC=CS1` [Compound 28, 2-(1,3-dithiol-2-ylidene)-1-(2-naphthyl)-1,3-butanedione], for which, in series [1], the “Liver Damage Index” value is 0. For the same compound, the figures for the inhibition in vivo at 50 mg/kg in series [1] (setting [2]) and in series [1] (setting [3]) were 100% and 99%, respectively. Moreover, in the series with mice (ddY mice), the “acute toxicity value (LD50)” value is “at least 2 g”.
On to `CC(=O)C(C(=O)Cc1ccccc1)=C1SC=CS1` [Compound 32, 3-(1,3-dithiol-2-ylidene)-1-phenyl-2,4-pentanedione], for which the “Liver Damage Index” value in series [1] was determined as 0.4. Moreover, the inhibition in vivo at 50 mg/kg is 124% in series [1] (setting [2]) and 95% in series [1] (setting [3]).
On to `CC(C)(C)C(=O)C(C(=O)c1ccccc1)=C1SC=CS1` [Compound 9, 2-(1,3-dithiol-2-ylidene)-4,4-dimethyl-1-phenyl-1,3-pentanedione], for which, in series [1], the “Liver Damage Index” value was 0.4. Moreover, the inhibition in vivo at 50 mg/kg in series [1] (setting [2]) was found to be 103%; in series [1] (setting [3]) it was 100%.
As to `CC(=O)C(C(=O)c1ccc([N+](=O)[O-])cc1)=C1SC=CS1` [Compound 19, 2-(1,3-dithiol-2-ylidene)-1-(4-nitrophenyl)-1,3-butanedione], the “Liver Damage Index” value in series [1] amounted to 1.6. The inhibition in vivo at 50 mg/kg in series [1] (setting [2]) and in series [1] (setting [3]) was 100% throughout.
As to `CC(=O)C(C(=O)C=Cc1ccccc1)=C1SC=CS1` [Compound 33, 4-(1,3-dithiol-2-ylidene)-1-phenyl-1-hexene-3,5-dione], the “Liver Damage Index” value in series [1] is on record as 4.2. The inhibition in vivo at 50 mg/kg stood at 86% in series [1] (setting [2]) and 77% in series [1] (setting [3]).
As for `CC(=O)C(C(=O)c1ccc(N)cc1)=C1SC=CS1` [Compound 46, 2-(1,3-dithiol-2-ylidene)-1-(4-aminophenyl)-1,3-butanedione], in series [1], the “Liver Damage Index” value is on record as 0.4. For the same compound, the inhibition in vivo at 50 mg/kg in series [1] (setting [2]) stood at 106%; in series [1] (setting [3]) it was 100%.
On the same counts, the results for `CC=CC(=O)C(C(=O)c1ccccc1)=C1SC=CS1` [Compound 11, 2-(1,3-dithiol-2-ylidene)-1-phenyl-4-hexene-1,3-dione] are 0.8, 105% and 100%.
As for `CC(=O)C(C(=O)c1ccc(Br)cc1)=C1SC=CS1` [Compound 15, 2-(1,3-dithiol-2-ylidene)-1-(4-bromophenyl)-1,3-butanedione], the “Liver Damage Index” value in series [1] was found to be 3.2. The values for the inhibition in vivo at 50 mg/kg in series [1] (setting [2]) and in series [1] (setting [3]) were 105% and 100%, respectively.
Turning to `COc1ccc(C(=O)C(C(C)=O)=C2SC=CS2)cc1OC` [Compound 18, 2-(1,3-dithiol-2-ylidene)-1-(3,4-dimethoxyphenyl)-1,3-butanedione], in series [1], the “Liver Damage Index” value is given as 0.4. Besides, the inhibition in vivo at 50 mg/kg in series [1] (setting [2]) stood at 100%; in series [1] (setting [3]) it was 54%.
For `COc1ccccc1C(=O)C(C(C)=O)=C1SC=CS1` [Compound 16, 2-(1,3-dithiol-2-ylidene)-1-(2-methoxyphenyl)-1,3-butanedione], in series [1], the “Liver Damage Index” value is 0.6. The inhibition in vivo at 50 mg/kg in series [1] (setting [2]) was 95%; in series [1] (setting [3]), 99%.
Consider `CC(=O)C(C(=O)c1ccc[nH]1)=C1SC=CS1` [Compound 25, 2-(1,3-dithiol-2-ylidene)-1-(2-pyrrolyl)-1,3-butanedione], for which, in series [1], the “Liver Damage Index” value is reported as 2.2. Further, the inhibition in vivo at 50 mg/kg stood at 88% in series [1] (setting [2]) and 76% in series [1] (setting [3]).
On the same counts, the results for `CC(=O)C(C(=O)c1cccs1)=C1SC=CS1` [Compound 24, 2-(1,3-dithiol-2-ylidene)-1-(2-thienyl)-1,3-butanedione] are 0, 102% and 100%.
